Patent publication US20080280837A1, “Biologically Active Compounds with Anti-Angiogenic Properties” (priority 2004, published 2008)
Where “and” joins values, the source holds several entries; their conditions need not be identical. Identical values can stand only once. Like-named read-outs stand apart in the source and are kept apart here.

Key:
[1] = ActiveTox suite of toxicity assays (LDH release, proliferation, ATP content, caspase 3/7, cyp1A induction, P-glycoprotein inhibition, cyp3A induction via PXR or GR); assay type: cell-based; conditions: 10 and 100 μM, quadruplicate
Experimental: Compounds were analyzed in eight separate assays at concentrations of 10 and 100 μM in quadruplicate. Compounds were assayed tar toxicity via LDH release, inhibition of proliferation, ATP content, caspase 3/7 activation. Compounds were assayed for induction of cyp1A and P-glycoprotein inhibition. Compounds were also assayed for cyp3A induction under conditions which favor activation via the pregnane receptor (PXR) or the glucorticord receptor (GR). Appropriate positive and negative controls were included in each case.

[2] = system: PC-3 human prostate tumour xenograft; assay: Nude mouse model of human PC-3 prostate tumours; assay type: in vivo, nude mice; conditions: PC-3 xenograft
Experimental: Initial Maximum Tolerated Dose (MTD) studies were done in male nude mice to determine the appropriate intravenous dosing regimen for the PC-3 human prostate tumour model. A range of doses between 0 and 50 mg/Kg for 28 days (qdx28) were tested. Mice were randomized into groups with 5 animals per group including vehicle control. Animals were weighed twice weekly starting on day one and observed daily for adverse reactions or toxicity due to the agent. MTD studies determined the selection of 20 mg/kg and 35 mg/kg for intravenous dosing once per day for 28 days in the PC-3 human prostate tumour xenograft model.
Male nude mice (nu/nu) between 5 and 6 weeks of age weighing approximately 25 g were implanted subcutaneously (s.c) by trocar with fragments of PC-3 human tumour carcinomas harvested from s.c growing tumours in host mice. PC-3, is a metastatic human prostate adenocarcinoma cell line originating from a person. When tumours reached approximately 36 mm^3 in size animals were pair matched into treatment and control groups with 10 mice in each group. […]
At the end of the treatment period the mice were weighed and sacrificed. Each tumour was excised and weighed and a mean actual tumour weight (mg) per group was calculated along with the mean actual volume ([…]). […] Mean tumour regression was determined using the formula [1−(mean actual tumour weightFINAL/mean tumour weightDAY 1)×100%].

3T3 cell line = assay: Cell proliferation assay (CellTiter 96 AQueous One) as indicator of toxicity, 3T3; assay type: cell-based; conditions: 3T3, 100 μM
Experimental: A simple cell proliferation assay was used to determine the in vitro cytotoxicity of “compound 1.” Selected cell lines were cultured according to their specific requirements. The optimal cell density required for each cell line was determined. All compounds were tested at a single concentration in triplicate. Cell viability was determined using the CellTiter 96® AQueous One reagent from Promega Corporation.
Assays are performed by adding the test compound to the cells in culture and incubating the cells for a fixed period. The number of viable cells remaining after the incubation period is determined by adding a small amount of the CellTiter 96® AQueous One Solution Reagent directly to culture wells, incubating for 1-4 hours and then recording absorbance at 490 nm with a 96 well plate reader.
Controls in the assay include untreated cells, wells without cells and cells treated with know cytotoxic agents. Data is presented as % inhibition of cell proliferation.

[3] = system: chicken embryo chorioallantoic membrane (CAM) vasculature; assay: Early chicken embryo chorioallantoic membrane (earlyCAM) assay; assay type: in vivo; conditions: for Aretry length (pixels) / CAM increase (fold) / Relative artery length (absolute vessel length (pixels)/CAM area (pixels)) / Relative total vessel length (absolute vessel length (pixels)/CAM area (pixels)) / Relative vein length (absolute vessel length (pixels)/CAM area (pixels)) / Total vessel length (pixels) / Vein diameter (pixels) / Vein length (pixels): mean ± SEM, n = 8
Experimental: Vein diameter was included as a measure of vessel growth. Where there was more than one major vein branch, the diameters of both were added together to give a total vein diameter. In the control CAM there were two well developed vein branches of similar diameter. In contrast, in the treated CAM there was a single major vein branch. Total vein diameter is 239 pixels in the control CAM, and only 107 pixels in the treated CAM.
When “compound 1” was applied to the CAM, there were dose responsive reductions in CAM growth and vasculature. The effects on CAM growth and vessel parameters were expressed as pixel measures (Table 1) and also as a percentage of the vehicle treated control group (FIG. 1). Vein lengths were reduced at all dose levels of “compound 1”, both in pixel and percentage terms, with a reduction to 67% of control at 5 nmol (p<0.05). […] When artery and vein lengths were combined to give total vessel length there was a significant reduction at the 5 nmol level (FIG. 1; p<0.05). A strong trend to reduced CAM growth with increasing doses of “compound 1” was also present.

[4] = In vivo pharmacokinetic evaluation after i.v. and p.o. administration to rats; set-up: species or system rat; conditions: for clearance: read-out: Cltotal (total plasma clearance); for Vd: read-out: VdB (volume of distribution during the elimination phase); for bioavailability: calculated using AUC0-480, read-out: BA (oral bioavailability)
Experimental: Intravenous infusion of “compound 1” (2 mg/Kg) over 5 minutes to two rats and arterial blood sampled up to 24 hours.
Oral administration of “compound 1” (25 mg/Kg as HPMC suspension) via oral gavage to two rats and arterial blood sampled up to 24 hours.
Plasma concentrations of “compound 1” determined by MS (LOQ<0.01 μM)
CLtotal=total plasma clearance after IV administration Vdβ=volume of distribution during the elimination phase after IV administration BA=oral bioavailability AUCIV=area under the plasma concentration versus time profile from time zero to infinity after IV administration AUCoral=area under the plasma concentration versus time profile from time zero to infinity after oral administration β=terminal elimination rate constant after IV administration

[5] = rat, plasma, iv, 2 mg/Kg, IV, Mean ± SD of two rats
[6] = rat, plasma, iv, 2 mg/Kg, Rat 1, IV
[7] = rat, plasma, iv, 2 mg/Kg, Rat 2, IV

COC[C@H]1O[C@H](OCCc2ccccc2)[C@H](NC(=O)CCCN)[C@@H](OCc2ccc3ccccc3c2)[C@@H]1O [Compound 1]
Effects in the eight ActiveTox assays [1]: no statistical effects
Tumour growth inhibition (TGI) ([2]; 20 mg/kg i.v. daily): 34%
Tumour growth inhibition (TGI) ([2]; 35 mg/kg i.v. daily): 34%
Inhibition of cell proliferation (3T3 cell line): no inhibitory effect
Aretry length (pixels) ([3]; 0.2 nmol): 1870 ± 109^ pixels
CAM increase (fold) ([3]; 0.2 nmol): 9.9 ± 0.9 fold
Relative artery length (absolute vessel length (pixels)/CAM area (pixels)) ([3]; 0.2 nmol): 43.0 ± 3.7
Relative total vessel length (absolute vessel length (pixels)/CAM area (pixels)) ([3]; 0.2 nmol): 79.9 ± 5.8
Relative vein length (absolute vessel length (pixels)/CAM area (pixels)) ([3]; 0.2 nmol): 36.9 ± 3.4
Total vessel length (pixels) ([3]; 0.2 nmol): 3498 ± 222^ pixels
Vein diameter (pixels) ([3]; 0.2 nmol): 191 ± 10 pixels
Vein length (pixels) ([3]; 0.2 nmol): 1628 ± 183^ pixels
Artery length as percentage of vehicle treated control (maximal reduction) ([3]; 1 nmol): 86 % of control
Aretry length (pixels) ([3]; 1 nmol): 1544 ± 214^ pixels
CAM increase (fold) ([3]; 1 nmol): 9.9 ± 0.8 fold
Relative artery length (absolute vessel length (pixels)/CAM area (pixels)) ([3]; 1 nmol): 34.7 ± 4.7
Relative total vessel length (absolute vessel length (pixels)/CAM area (pixels)) ([3]; 1 nmol): 71.3 ± 6.3
Relative vein length (absolute vessel length (pixels)/CAM area (pixels)) ([3]; 1 nmol): 36.5 ± 2.4
Total vessel length (pixels) ([3]; 1 nmol): 3169 ± 341^ pixels
Vein diameter (pixels) ([3]; 1 nmol): 187 ± 15 pixels
Vein length (pixels) ([3]; 1 nmol): 1625 ± 166^1 pixels
Reduction in vein diameter versus control ([3]; 5 nmol): approximately 25%
Aretry length (pixels) ([3]; 5 nmol): 1510 ± 196^ pixels
CAM increase (fold) ([3]; 5 nmol): 8.9 ± 0.8 fold
Relative artery length (absolute vessel length (pixels)/CAM area (pixels)) ([3]; 5 nmol): 36.4 ± 3.0
Relative total vessel length (absolute vessel length (pixels)/CAM area (pixels)) ([3]; 5 nmol): 71.6 ± 3.7
Relative vein length (absolute vessel length (pixels)/CAM area (pixels)) ([3]; 5 nmol): 35.1 ± 2.6
Total vessel length (pixels) ([3]; 5 nmol): 2939 ± 292^1 pixels
Vein length (pixels) ([3]; 5 nmol): 1429 ± 141^1 pixels
Vein diameter (pixels) ([3]; 5 nmol, p = 0.057): 157 pixels and 157 ± 23 pixels
Vein length as percentage of vehicle treated control ([3]; 5 nmol, p<0.05): 67 % of control
Total vein diameter ([3]; single treated CAM (control CAM 239 pixels), dose not stated): 107 pixels
VdB (volume of distribution during the elimination phase) ([4]; IV, Mean ± SD of two rats): 3.29 ± 0.56 L/kg
Tmax ([4]; Rat 4, PO 25 mg/Kg): 20 min
Tmax ([4]; plasma, Rat 3, PO 25 mg/Kg, read-out: Tmax (converted)): 20 min
Tmax ([4]; rat, plasma, 25 mg/Kg, PO, mean of two rats, read-out: Tmax (converted)): 20 min
clearance [4, 5]: 8.2 mL/min/kg
Vd [4, 5]: 3.3 L/kg
half-life ([4]; rat, plasma, iv, 2 mg/Kg, IV, Mean ± SD of two rats, read-out: t1/2 (elimination half-life) (converted)): ~276 min
Cmax ([4]; rat, plasma, iv, 2 mg/Kg, Mean ± SD of two rats): 31.9 ± 2.27 µM
Cmax ([4]; rat, plasma, iv, 2 mg/Kg, Rat 1, IV infusion 2 mg/Kg over 5 minutes): 30.3 µM
clearance [4, 6]: 7.53 mL/min/kg
Vd [4, 6]: 2.9 L/kg
half-life ([4]; rat, plasma, iv, 2 mg/Kg, Rat 1, IV, read-out: t1/2 (converted)): 267 min
Cmax ([4]; rat, plasma, iv, 2 mg/Kg, Rat 2, IV infusion 2 mg/Kg over 5 minutes): 33.5 µM
clearance [4, 7]: 8.86 mL/min/kg
Vd [4, 7]: 3.69 L/kg
half-life ([4]; rat, plasma, iv, 2 mg/Kg, Rat 2, IV, read-out: t1/2 (converted)): 286 min
Cmax ([4]; rat, plasma, po, 25 mg/Kg, Mean ± SD of two rats): 4.95 ± 2.84 µM
bioavailability ([4]; rat, plasma, po, 25 mg/Kg, PO, Mean ± SD of two rats): ~5.2%
bioavailability ([4]; rat, plasma, po, 25 mg/Kg, Rat 4, PO): 5.38%
Cmax ([4]; rat, plasma, po, 25 mg/kg, Rat 3, PO 25 mg/Kg HPMC suspension): 6.95 µM
Cmax ([4]; rat, plasma, po, 25 mg/kg, Rat 4, PO 25 mg/Kg HPMC suspension): 2.94 µM
